Results reported in PubChem BioAssay AID2060909 (Molecular Pharmacology Branch, DTP, NCI, 2025).

Tested on: 362531-283-R-J2-PDC complex spheroid viability
Assay: Anticancer human tumor 362531-283-R-J2-PDC patient-derived colon adenocarcinoma cell line growth inhibition [RAS]
Settings: for IC50: curve of first compound; for viability, T/C: stronger effect = lower value; active = viability on the fitted dose curve at most 10% of control; inactive = the rest
Summary of the method: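 Multi-cell-type spheroids: tumor cells plus HUVEC endothelial cells and mesenchymal stem cells. RAS-pathway inhibitors were combined with targeted agents, each dosed in half-log steps down from clinical Cmax, or from 10 microM when Cmax was unknown.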

[1] = second compound 0.00316 µM, first compound 0.00316 µM
[2] = second compound 0.00316 µM, first compound 0.01 µM
[3] = second compound 0.00316 µM, first compound 0.0316 µM
[4] = second compound 0.00316 µM, first compound 0.1 µM
[5] = second compound 0.00316 µM, first compound 0.316 µM
[6] = second compound 0.00316 µM, first compound 1 µM
[7] = second compound 0.01 µM, first compound 0.00316 µM
[8] = second compound 0.01 µM, first compound 0.01 µM
[9] = second compound 0.01 µM, first compound 0.0316 µM
[10] = second compound 0.01 µM, first compound 0.1 µM
[11] = second compound 0.01 µM, first compound 0.316 µM
[12] = second compound 0.01 µM, first compound 1 µM
[13] = second compound 0.0316 µM, first compound 0.00316 µM
[14] = second compound 0.0316 µM, first compound 0.01 µM
[15] = second compound 0.0316 µM, first compound 0.0316 µM
[16] = second compound 0.0316 µM, first compound 0.1 µM
[17] = second compound 0.0316 µM, first compound 0.316 µM
[18] = second compound 0.0316 µM, first compound 1 µM
[19] = second compound 0.1 µM, first compound 0.00316 µM
[20] = second compound 0.1 µM, first compound 0.01 µM
[21] = second compound 0.1 µM, first compound 0.0316 µM
[22] = second compound 0.1 µM, first compound 0.1 µM
[23] = second compound 0.1 µM, first compound 0.316 µM
[24] = second compound 0.1 µM, first compound 1 µM
[25] = second compound 0.316 µM, first compound 0.00316 µM
[26] = second compound 0.316 µM, first compound 0.01 µM
[27] = second compound 0.316 µM, first compound 0.0316 µM
[28] = second compound 0.316 µM, first compound 0.1 µM
[29] = second compound 0.316 µM, first compound 0.316 µM
[30] = second compound 0.316 µM, first compound 1 µM
[31] = second compound 1 µM, first compound 0.00316 µM
[32] = second compound 1 µM, first compound 0.01 µM
[33] = second compound 1 µM, first compound 0.0316 µM
[34] = second compound 1 µM, first compound 0.1 µM
[35] = second compound 1 µM, first compound 0.316 µM
[36] = second compound 1 µM, first compound 1 µM
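Also: spheroids exposed to the agents for 7 days before readout.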
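For viability, T/C in this document: luminescence viability as percent of DMSO vehicle control wells.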

CC1(C)CCC(Nc2ncc(C(F)(F)F)c(-c3c[nH]c4c(P(C)(C)=O)c(C#N)ccc34)n2)CN1 (stereo not drawn) + C#Cc1c(F)ccc2cc(O)cc(-c3ncc4c(N5CC6CCC(C5)N6)nc(OCC56CCCN5CC(F)C6)nc4c3F)c12
inactive: viability, T/C (second compound 0.0316 µM, first compound 0.000949 µM) 97% | viability, T/C (second compound 0.0316 µM, first compound 0.003 µM) 95.6% | viability, T/C (second compound 0.0316 µM, first compound 0.00949 µM) 98.5% | viability, T/C (second compound 0.0316 µM, first compound 0.03 µM) 92.3% | viability, T/C (second compound 0.0316 µM, first compound 0.0949 µM) 107% | viability, T/C (second compound 0.0316 µM, first compound 0.3 µM) 114% | viability, T/C (second compound 0.1 µM, first compound 0.000949 µM) 107% | viability, T/C (second compound 0.1 µM, first compound 0.003 µM) 85.5% | viability, T/C (second compound 0.1 µM, first compound 0.00949 µM) 90.4% | viability, T/C (second compound 0.1 µM, first compound 0.03 µM) 95.8% | viability, T/C (second compound 0.1 µM, first compound 0.0949 µM) 101% | viability, T/C (second compound 0.1 µM, first compound 0.3 µM) 99.5% | viability, T/C (second compound 0.316 µM, first compound 0.000949 µM) 95.7% | viability, T/C (second compound 0.316 µM, first compound 0.003 µM) 88.2% | viability, T/C (second compound 0.316 µM, first compound 0.00949 µM) 88.8% | viability, T/C (second compound 0.316 µM, first compound 0.03 µM) 90.2% | viability, T/C (second compound 0.316 µM, first compound 0.0949 µM) 97.4% | viability, T/C (second compound 0.316 µM, first compound 0.3 µM) 93.8% | viability, T/C (second compound 1 µM, first compound 0.000949 µM) 80.5% | viability, T/C (second compound 1 µM, first compound 0.003 µM) 89.3% | viability, T/C (second compound 1 µM, first compound 0.00949 µM) 83.4% | viability, T/C (second compound 1 µM, first compound 0.03 µM) 93.5% | viability, T/C (second compound 1 µM, first compound 0.0949 µM) 80.9% | viability, T/C (second compound 1 µM, first compound 0.3 µM) 82.9% | viability, T/C (second compound 3.16 µM, first compound 0.000949 µM) 68.4% | viability, T/C (second compound 3.16 µM, first compound 0.003 µM) 65.9% | viability, T/C (second compound 3.16 µM, first compound 0.00949 µM) 70.9% | viability, T/C (second compound 3.16 µM, first compound 0.03 µM) 74% | viability, T/C (second compound 3.16 µM, first compound 0.0949 µM) 61.2% | viability, T/C (second compound 3.16 µM, first compound 0.3 µM) 71.1% | viability, T/C (second compound 10 µM, first compound 0.000949 µM) 56.4% | viability, T/C (second compound 10 µM, first compound 0.003 µM) 49.7% | viability, T/C (second compound 10 µM, first compound 0.00949 µM) 54.8% | viability, T/C (second compound 10 µM, first compound 0.03 µM) 55% | viability, T/C (second compound 10 µM, first compound 0.0949 µM) 41.4% | viability, T/C (second compound 10 µM, first compound 0.3 µM) 54.3%
> 300 nM: IC50 (second compound 0.0316 µM) | IC50 (second compound 0.1 µM) | IC50 (second compound 0.316 µM) | IC50 (second compound 1 µM) | IC50 (second compound 3.16 µM) | IC50 (second compound 10 µM)

C=CC(=O)Nc1cc(Nc2nccc(-c3cn(C)c4ccccc34)n2)c(OC)cc1N(C)CCN(C)C + C=CC(=O)N1CCN(c2nc(OCC3CCCN3C)nc3c(F)c(-c4nc(N)cc(C)c4C(F)(F)F)c(Cl)cc23)C(C)C1
inactive: viability, T/C [1] 103% | viability, T/C [2] 97.4% | viability, T/C [3] 100% | viability, T/C [4] 95.6% | viability, T/C [5] 89% | viability, T/C [6] 69.8% | viability, T/C [7] 107% | viability, T/C [8] 100% | viability, T/C [9] 104% | viability, T/C [10] 98.3% | viability, T/C [11] 96.9% | viability, T/C [12] 56% | viability, T/C [13] 104% | viability, T/C [14] 99.2% | viability, T/C [15] 98.3% | viability, T/C [16] 94.9% | viability, T/C [17] 93.5% | viability, T/C [18] 65.5% | viability, T/C [19] 103% | viability, T/C [20] 104% | viability, T/C [21] 101% | viability, T/C [22] 96.8% | viability, T/C [23] 101% | viability, T/C [24] 62.8% | viability, T/C [25] 93.8% | viability, T/C [26] 96% | viability, T/C [27] 98.1% | viability, T/C [28] 94.8% | viability, T/C [29] 96.2% | viability, T/C [30] 54.9% | viability, T/C [31] 105% | viability, T/C [32] 95.8% | viability, T/C [33] 97.4% | viability, T/C [34] 103% | viability, T/C [35] 86.5% | viability, T/C [36] 70.7%
> 1000 nM: IC50 (second compound 0.00316 µM) | IC50 (second compound 0.01 µM) | IC50 (second compound 0.0316 µM) | IC50 (second compound 0.1 µM) | IC50 (second compound 0.316 µM) | IC50 (second compound 1 µM)

CC(Nc1ccc2c(c1)OCCn1cc(N3C(=O)OCC3C(F)F)nc1-2)C(N)=O (stereo not drawn) + C=CC(=O)N1CCN(c2nc(OCC3CCCN3C)nc3c(F)c(-c4nc(N)cc(C)c4C(F)(F)F)c(Cl)cc23)C(C)C1
928 nM: IC50 (second compound 0.01 µM)
839 nM: IC50 (second compound 0.316 µM)
810 nM: IC50 (second compound 0.1 µM)
inactive: viability, T/C [3] 96.6% | viability, T/C [4] 78.6% | viability, T/C [5] 54.5% | viability, T/C [6] 46.1% | viability, T/C (second compound 0.00316 µM, first compound 3.16 µM) 39.1% | viability, T/C (second compound 0.00316 µM, first compound 10 µM) 42.7% | viability, T/C [9] 97.4% | viability, T/C [10] 86.2% | viability, T/C [11] 70.2% | viability, T/C [12] 46.8% | viability, T/C (second compound 0.01 µM, first compound 3.16 µM) 38.3% | viability, T/C (second compound 0.01 µM, first compound 10 µM) 30.3% | viability, T/C [15] 87.4% | viability, T/C [16] 84.4% | viability, T/C [17] 63.7% | viability, T/C [18] 43.5% | viability, T/C (second compound 0.0316 µM, first compound 3.16 µM) 33.3% | viability, T/C (second compound 0.0316 µM, first compound 10 µM) 43.4% | viability, T/C [21] 95.9% | viability, T/C [22] 92.5% | viability, T/C [23] 71.7% | viability, T/C [24] 44.2% | viability, T/C (second compound 0.1 µM, first compound 3.16 µM) 35.4% | viability, T/C (second compound 0.1 µM, first compound 10 µM) 27.4% | viability, T/C [27] 107% | viability, T/C [28] 88% | viability, T/C [29] 68.8% | viability, T/C [30] 47.9% | viability, T/C (second compound 0.316 µM, first compound 3.16 µM) 31.9% | viability, T/C (second compound 0.316 µM, first compound 10 µM) 35.8% | viability, T/C [33] 94.8% | viability, T/C [34] 95.6% | viability, T/C [35] 72% | viability, T/C [36] 46.6% | viability, T/C (second compound 1 µM, first compound 3.16 µM) 31.8% | viability, T/C (second compound 1 µM, first compound 10 µM) 35%
666 nM: IC50 (second compound 0.0316 µM)
549 nM: IC50 (second compound 0.00316 µM)
808 nM: IC50 (second compound 1 µM)

O=C(c1ccc(F)c(F)c1Nc1ccc(I)cc1F)N1CC(O)([C@@H]2CCCCN2)C1 + C=CC(=O)N1CCN(c2nc(OCC3CCCN3C)nc3c(F)c(-c4nc(N)cc(C)c4C(F)(F)F)c(Cl)cc23)C(C)C1
363 nM: IC50 (second compound 0.00316 µM)
inactive: viability, T/C [1] 94.4% | viability, T/C [2] 111% | viability, T/C [3] 93.1% | viability, T/C [4] 84.8% | viability, T/C [5] 56.6% | viability, T/C [7] 100% | viability, T/C [8] 95.3% | viability, T/C [9] 97% | viability, T/C [10] 83.9% | viability, T/C [11] 61.4% | viability, T/C [13] 103% | viability, T/C [14] 99.2% | viability, T/C [15] 95.1% | viability, T/C [16] 80.8% | viability, T/C [17] 48.9% | viability, T/C [18] 10.1% | viability, T/C [19] 101% | viability, T/C [20] 97.5% | viability, T/C [21] 88.8% | viability, T/C [22] 79.6% | viability, T/C [23] 59.6% | viability, T/C [25] 99.7% | viability, T/C [26] 97.6% | viability, T/C [27] 91.9% | viability, T/C [28] 81.9% | viability, T/C [29] 58.3% | viability, T/C [31] 101% | viability, T/C [32] 94.7% | viability, T/C [33] 81.1% | viability, T/C [34] 79.7% | viability, T/C [35] 55.5%
349 nM: IC50 (second compound 1 µM)
377 nM: IC50 (second compound 0.316 µM)
399 nM: IC50 (second compound 0.01 µM)
306 nM: IC50 (second compound 0.0316 µM)
active: viability, T/C [6] 4.22% | viability, T/C [12] 6.87% | viability, T/C [24] 4.51% | viability, T/C [30] 6.58% | viability, T/C [36] 8.33%
368 nM: IC50 (second compound 0.1 µM)
